Measurements taken from US6146554A, “Photochromic naphtopyrane colorants, method for the production and use thereof, photochromic object” (Optische Werke G. Rodenstock, priority 1997, dated 2000).
Each block holds one molecule with its values, some of them ahead of it.

How the values were obtained:
Format in all cases: physicochemical
[1] = Absorption maximums of the closed and open forms and colour (Table 1, FIGS. 4 and 5); settings: for max closed form (shoulder) / max closed form: closed (not excited) form; for max closed form: Transhade-150 test specimen, 500 ppm; for colour / max open form: open (excited) form
Source text: For illustration of the aforedescribed bathochromic shift of the inventive compounds, compared against prior art, comparative tests have been carried out.
The first three compounds in Table 1--V1, V2 and Example 3--correspond to prior art (cf. WO 96/14596); the production of V1 and V2 is described there in details.
The production of the test specimens and the measuring methodology are described in details i the Examples.
FIGS. 4 and 5 show the absorption of the closed form or the absorption of the open form, compared against the absorption of the prior art compounds V1 and V2, expressed by plotting the extinction versus the wavelength. For a better recognition of the bathochromic shift a normalisation of the absorption intensity to roughly the same value has been made in the open form.
Absorption maximums of the open and closed forms, starting out
(§1) 500 ppm of the respective photochromic dye are dissolved in the employed monomer (TRANSHADE-150 from the company of Tokuyama; index of refraction 1.52) at room temperature while stirring. After the addition of an initiator of the alkyl peroxy-ester type (1.5% by weight) degassing is performed twice and subsequently the polymerisation is carried out in correspondence with the temperature programme recommended by the Tokuyama company. The glass casting moulds are coloured in black so that the entirety of the photochromic dyes may be integrated into the matrix in a non-excited state. After completion of the polymerisation process the test specimens are additionally tempered at 100° C. for 2 hours.

[2] = Brightening rate and brightening kinetics in the polymer Transhade-150; settings: for Δ(10 min, 23° C.) relative brightening: within 10 min at 23° C.
Protocol: For a further illustration of the foregoing explanations comparative tests have been carried out again on the inventive compounds and on known compounds. The compounds used are derived from the compound of the following general formula: [drawing 5]
The brightening rate and the brightening kinetics were measured for differently substituted systems in the polymer Transhade-150 of the company of Tokuyama at different temperatures. The results obtained are summarised in the following, with the following terms being used:
Δ=relative brightening within 10 minutes at 23° C.
=100% (.tau.10 min-.tau.s)/(.tau.0-.tau.s)
.tau.s is the transmission achieved after 15 min of obscuration
.tau.0 is the transmission in the fully brightened condition
.tau.10 min is the transmission after 10 min brightening in the dark
T1/2 =time elapsing up to a brightening level corresponding to half the darkening level (half-period)
The brightening kinetics of differently substituted systems was determined, with R1, R2 and R3 representing either the methoxy group or hydrogen; the measurements were performed at 23° C. and 40° C.
Production of the test specimens:
as §1
Plotting of the kinetics graphs:
For the determination of the brightening rates the test specimens so produced were measured in a common kinetics test bench (irradiation with 50 klux in compliance with EN 1836, item 6.1.3.1.1). The exposure time was 15 minutes in each case, brightening takes place in the dark. During exposure and brightening the transmission graph--evaluated by the sensitivity to brightness of the human eye, V λ--is recorded. The glass temperature is controlled via a cuvette designed for being controlled by means of a thermostat.

[3] = Photochromy observed in solution and in the glass
Protocol: (ix) 1 g of the above reaction product is dissolved in 50 ml of absolute THF while stirring and cooled in an ice bath. Lithium aluminium hydride is added in small portions until the colour of the reaction solution does no longer brighten up. Stirring is then continued for another 10 min. and the solution is poured into water, acidified with conc. hydrochloric acid until the phases are clear whereupon the organic phase is isolated. After extraction with water, drying over sodium sulphate and removal of the solvent by rotation a brownish viscous residue remains which crystallises when methanol is added. The suspension is stirred at room temperature for some minutes more and then the precipitate is exhausted. The slightly brownish solid (0.8 g) was identified as 6-methoxy-3-(4-methoxy phenyl)-3-phenyl-13-hydroxy-benz[p]indeno[2,1-f]naphtho[1,2-b]pyrane by means of the NMR spectrum.

[4] = Table 3: R1 = OCH3, R2 = R3 = H
[5] = Table 4: R1 = R3 = OCH3, R2 = H

max closed form (shoulder) [1]: 375 nm | max closed form [1]: 350 nm | colour [1]: blue-violet | max open form [1]: 570 nm
SMILES: COc1ccc(C2(c3ccc(OC)cc3)C=Cc3c4c(c5ccc(C)cc5c3O2)-c2ccc(C)cc2C4O)cc1 (stereo not shown) [Example V2]

T1/2 (40° C.) [2, 4]: 7.0 min | Δ(10 min, 23° C.) relative brightening [2, 4]: 25%
SMILES: CCC1(O)c2ccccc2-c2c1c1c(c3cc(OC)ccc23)OC(c2ccccc2)(c2ccc(OC)cc2)C=C1 (stereo not shown) [Example 4, 6-methoxy-3-(4-methoxyphenyl)-3-phenyl-13-ethyl-13-hydroxy-indeno[2,1-f]naphtho[1,2-b]pyrane]

T1/2 (40° C.) [2, 4]: 4.2 min | Δ(10 min, 23° C.) relative brightening [2, 4]: 34%
SMILES: COc1ccc(C2(c3ccccc3)C=Cc3c4c(c5ccc(OC)cc5c3O2)-c2ccccc2C4(O)c2ccccc2C)cc1 (stereo not shown) [Example 7]

T1/2 (40° C.) [2, 4]: 4.0 min | Δ(10 min, 23° C.) relative brightening [2, 4]: 36%
SMILES: COc1ccc(C2(c3ccccc3)C=Cc3c4c(c5ccc(OC)cc5c3O2)-c2ccccc2C4(O)c2cc(C)ccc2C)cc1 (stereo not shown) [Example 8, 6-methoxy-3-(4-methoxyphenyl)-3-phenyl-13-(2,5-dimethylphenyl)-13-hydroxy-indeno[2,1-f]naphtho[1,2-b]pyrane]

T1/2 (40° C.) [2, 4]: 7.0 min | Δ(10 min, 23° C.) relative brightening [2, 4]: 22%
SMILES: COc1ccc(C2(c3ccccc3)C=Cc3c4c(c5ccc(OC)cc5c3O2)-c2ccccc2C4(O)c2ccccc2)cc1 (stereo not shown) [Example 5, 13-hydroxy-6-methoxy-3-(4-methoxyphenyl)-3,13-diphenyl indeno[2,1-f]-naphtho[1,2-b]pyrane]

T1/2 (40° C.) [2, 4]: 3.4 min | Δ(10 min, 23° C.) relative brightening [2, 4]: 38%
SMILES: COc1ccc(C2(c3ccccc3)C=Cc3c4c(c5ccc(OC)cc5c3O2)-c2ccccc2C4(O)c2sccc2C)cc1 (stereo not shown) [Example 9, 6-methoxy-3-(4-methoxyphenyl)-3-phenyl-13-(3-methyl-2-thienyl)-13-hydroxy-indeno[2,1-f]naphtho[1,2-b]pyrane]

T1/2 (40° C.) [2, 5]: 2.5 min | Δ(10 min, 23° C.) relative brightening [2, 5]: 44%
SMILES: COc1ccc(C2(c3ccc(OC)cc3)C=Cc3c4c(c5ccc(OC)cc5c3O2)-c2ccccc2C4(O)c2cccc3ccccc23)cc1 (stereo not shown) [Example V4]

max closed form [1]: 385 nm | colour [1]: green | max open form [1]: 600 nm | photochromy colour [3]: green photochromy
SMILES: COc1ccc(C2(c3ccccc3)C=Cc3c4c(c5ccc(OC)cc5c3O2)-c2ccc3ccccc3c2C4O)cc1 (stereo not shown) [Example 1, 6-methoxy-3-(4-methoxyphenyl)-3-phenyl-13-hydroxy-benz[p]indeno[2,1-f]naphtho[1,2-b]pyrane]

max closed form (shoulder) [1]: 375 nm | max closed form [1]: 360 nm | colour [1]: blue | max open form [1]: 575 nm
SMILES: COc1ccc(C2(c3ccccc3)C=Cc3c4c(c5ccc(OC)cc5c3O2)-c2ccccc2C4O)cc1 (stereo not shown) [Example 3, 6-methoxy-3-(4-methoxyphenyl)-3-phenyl-13-hydroxy-indeno[2,1-f]-naphtho[1,2-b]pyrane]

T1/2 (40° C.) [2, 4]: 5.0 min | Δ(10 min, 23° C.) relative brightening [2, 4]: 29%
SMILES: COc1ccc(C2(c3ccccc3)C=Cc3c4c(c5ccc(OC)cc5c3O2)-c2ccccc2C4(O)c2cccc3ccccc23)cc1 (stereo not shown) [Example 6, 6-methoxy-3-(4-methoxyphenyl)-3-phenyl-13-(1-naphthyl)-13-hydroxy-indeno [2,1-f]-naphtho[1,2-b]pyrane]

T1/2 (40° C.) [2, 5]: 2.5 min | Δ(10 min, 23° C.) relative brightening [2, 5]: 43%
SMILES: COc1ccc(C2(c3ccc(OC)cc3)C=Cc3c4c(c5ccc(OC)cc5c3O2)-c2ccccc2C4(O)c2ccccc2)cc1 (stereo not shown) [Example V3]
